Measured values taken from patent US8901301B2, “Pyrrolo[2,3-]pyridine kinase inhibitors” (Plexxikon Inc., priority 2009, dated 2014).

How the values were obtained:
A375 cells = test: Cell growth inhibition (Cell Titer Glo), A375; format: cell-based; conditions: Homo sapiens, A-375, 72 h; B-Raf V600E cell line, 3 days
Method: (§1) Compounds are assessed in a variety of cell based assays, employing cells with or without B-Raf V600E mutation, for example cell lines with B-Raf V600E mutation (A375 and COLO205), as well as tumorigenic cell lines with wild-type B-RAF (SW620 and SK-MEL-2). Reagent and assay conditions are as follows:
A375 cells growth medium: • Dulbecco's modified Eagle's medium, 4 mM L-glutamine, 4.5 g/L D-glucose, 10% fetal bovine serum.
(§2) SK-MEL-2 cells growth medium: • Minimum Eagle essential medium, 2 mM L-glutamine, 1.5 g/L sodium bicarbonate, 0.1 mM non-essential amino acids, 1.0 mM sodium pyruvate, 10% fetal bovine serum. • On day 1, cells are seeded in growth media in 200 μL per well in a 96-well polystyrene tissue culture plate at 2,000 cells per well (A375, COLO205, SK-MEL-2) or 5,000 cells per well for SW620, and incubated at 37° C. and 5% CO2 overnight. • On day 2, compound at 4 mM in dimethyl sulfoxide is serially diluted 1:4 (10 μL with 30 μL dimethyl sulfoxide) seven times for a total of 8 concentration points. For each dilution point a 1 μL aliquot is added to a well containing cells (highest dilution point at 20 μM), with 1 μL of dimethyl sulfoxide as a negative control (each sample at 0.5% dimethyl sulfoxide). The cells are incubated for 3 days at 37° C. in 5% CO2. • On day 5, Cell Titer Glo (Promega) is thawed and added 100 μL to each well and the plate shaken for 1-2 minutes. The plates are incubated for 10 minutes at room temperature, then […] signal is read (e.g. on Safire reader). The measured fluoresence correlates directly with cell number, such that the reading as a function of compound concentration is used to determine the IC50 value.

CYP2C19 = target: T1, CYP2C19 (Homo sapiens, UniProt P33261); test: CYP inhibition (fluorescent substrate), CYP2C19; format: in vitro ADME; conditions: substrate CEC; read-out: Cyp IC50 (μM) 2C19
T1 construct: purchased BD Biosciences
T1 sequence (P33261 whole entry): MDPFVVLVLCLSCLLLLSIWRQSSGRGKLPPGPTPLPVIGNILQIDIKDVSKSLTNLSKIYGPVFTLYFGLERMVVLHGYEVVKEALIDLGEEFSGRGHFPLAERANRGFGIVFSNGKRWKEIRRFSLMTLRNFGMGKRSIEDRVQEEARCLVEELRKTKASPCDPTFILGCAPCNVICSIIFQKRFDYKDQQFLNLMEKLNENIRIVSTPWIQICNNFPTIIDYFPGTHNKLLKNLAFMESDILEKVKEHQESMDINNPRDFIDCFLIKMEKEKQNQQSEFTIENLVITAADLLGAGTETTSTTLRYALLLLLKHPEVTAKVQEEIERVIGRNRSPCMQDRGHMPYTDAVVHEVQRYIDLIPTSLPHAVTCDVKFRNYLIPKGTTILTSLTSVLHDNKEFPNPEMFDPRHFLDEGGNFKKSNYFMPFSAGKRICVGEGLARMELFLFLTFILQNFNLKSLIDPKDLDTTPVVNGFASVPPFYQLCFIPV
Method: (§3) CYP (Cytochrome P450) enzymes are the major drug metabolizing enzymes present in the liver. The inhibition of CYP enzyme activity (IC50) for each of CYP1A2, CYP2C19, CYP2C9, CYP2D6, CYP3A4(BFC) and CYP3A4(BQ) is determined for compounds, where inhibition of metabolism of a known substrate leads to a decrease in the fluorescence of the metabolized product. The fluorescence of the product is monitored as a function of compound concentration. Compounds are dissolved in dimethyl sulfoxide to a concentration of 100 mM. These are diluted 1 μL into 82 μL of acetonitrile. An 11 μL aliquot of this solution is then added to 204 μL of cofactor mix (1.3% NADPH Regeneration system Solution A, 1.04% NADPH Regeneration system Solution B from BD Biosciences, 5% acetonitrile and 0.05% dimethyl sulfoxide). These are then serially diluted 1:1 (160 μL to 160 μL co-factor mix) for a total of 10 points. A 10 μL aliquot of this final mixture is dispensed into 384 well assay plates and incubated for 10 minutes at 37° C. […] Assay plates are incubated at 37° C. (CYP1A2-15 min; CYP2C9-45 min; CYP2C19, 2D6 and 3A4-30 min) and read in a Tecan Safire 2 plate reader (CYP1A2, 2C19 and 3A4 409 ex/460 em; CYP2C9 and 2D6 409 ex/530 em). The signal versus compound concentration is used to determine the IC50. The enzymes and substrates for this assay are obtained from BD Biosciences.

SK-MEL-2 cells = test: Cell growth inhibition (Cell Titer Glo), SK-MEL-2; format: cell-based; conditions: Homo sapiens, SK-MEL-2, 72 h; wild-type B-RAF cell line, 3 days
Method: as §1, §2

COLO205 cells = test: Cell growth inhibition (Cell Titer Glo), COLO205; format: cell-based; conditions: Homo sapiens, COLO 205, 72 h; B-Raf V600E cell line, 3 days
Method: as §1
COLO205 cells growth medium: • RPMI 1640, 2 mM L-glutamine, 1.5 g/L sodium bicarbonate, 4.5 g/L D-glucose, 10 mM HEPES, 1.0 mM sodium pyruvate, 10% fetal bovine serum.
as §2

[1] = tested on: Colo205 colorectal tumor cells with BRaf V600E mutation; test: Colo205 xenograft mouse model; format: in vivo; conditions: female nu/nu mice, 10 mg/kg daily for fourteen days, vs vehicle control
Method: Female nu/nu mice are implanted with Colo-205 trocar fragments from donor mice, sub-cutaneous and high in the axilla. Tumor growth is monitored to approximately 100 mg size, and mice are distributed to treatment groups such that the mean tumor burden within a group is within 10% of the overall mean tumor burden. Mice are treated with vehicle control, positive control or compound (8 mice per group) in 5% DMSO and 95% CMC (1%), with compound dosed at 10 mg/kg daily for fourteen days. Mice are observed daily, with tumor burden and body weights measured twice a week. Animals with tumor burden above 1500-2000 mg and any animals in moribund condition are euthanized. The average tumor growth of vehicle control group mice is compared to the average tumor growth of the test compound mice. Percent tumor growth inhibition is calculated as 100×[(tumor growth control-tumor growth test compound)/tumor growth control].

Kit = Kit (Homo sapiens, UniProt P10721); test: Biochemical inhibitory activity, other protein kinases: Kit; conditions: for Kinase having IC50 of >1 μM: listing of the kinase means IC50 >1 μM
Kit, sequence (P10721 26-976, species assumed): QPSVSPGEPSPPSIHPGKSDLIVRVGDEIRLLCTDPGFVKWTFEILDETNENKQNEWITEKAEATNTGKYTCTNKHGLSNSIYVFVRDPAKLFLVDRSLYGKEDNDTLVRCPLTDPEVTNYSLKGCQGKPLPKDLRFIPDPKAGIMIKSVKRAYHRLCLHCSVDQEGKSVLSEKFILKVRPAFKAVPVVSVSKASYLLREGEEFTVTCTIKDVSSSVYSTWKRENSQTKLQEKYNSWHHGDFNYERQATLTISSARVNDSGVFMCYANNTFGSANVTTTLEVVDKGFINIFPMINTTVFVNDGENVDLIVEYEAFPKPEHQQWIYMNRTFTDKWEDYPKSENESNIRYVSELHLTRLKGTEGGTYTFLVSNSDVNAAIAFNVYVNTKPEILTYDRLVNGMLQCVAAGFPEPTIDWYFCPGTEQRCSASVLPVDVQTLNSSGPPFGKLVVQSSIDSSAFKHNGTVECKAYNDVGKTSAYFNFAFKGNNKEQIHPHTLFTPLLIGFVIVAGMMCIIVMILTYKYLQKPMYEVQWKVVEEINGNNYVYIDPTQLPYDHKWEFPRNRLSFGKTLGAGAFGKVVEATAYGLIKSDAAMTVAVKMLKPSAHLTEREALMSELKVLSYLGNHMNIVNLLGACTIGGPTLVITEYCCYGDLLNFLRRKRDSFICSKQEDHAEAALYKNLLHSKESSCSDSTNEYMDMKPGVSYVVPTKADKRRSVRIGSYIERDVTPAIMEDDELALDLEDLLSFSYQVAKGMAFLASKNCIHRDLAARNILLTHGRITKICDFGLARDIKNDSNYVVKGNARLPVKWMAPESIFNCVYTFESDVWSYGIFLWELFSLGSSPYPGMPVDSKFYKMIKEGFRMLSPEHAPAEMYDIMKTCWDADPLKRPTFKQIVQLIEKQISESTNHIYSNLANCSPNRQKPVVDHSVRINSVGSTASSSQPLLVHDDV

Btk = Btk (Homo sapiens, UniProt Q06187); test: Biochemical inhibitory activity, other protein kinases: Btk; conditions: listing of the kinase means IC50 >1 μM
Btk, sequence (Q06187 whole entry, species assumed): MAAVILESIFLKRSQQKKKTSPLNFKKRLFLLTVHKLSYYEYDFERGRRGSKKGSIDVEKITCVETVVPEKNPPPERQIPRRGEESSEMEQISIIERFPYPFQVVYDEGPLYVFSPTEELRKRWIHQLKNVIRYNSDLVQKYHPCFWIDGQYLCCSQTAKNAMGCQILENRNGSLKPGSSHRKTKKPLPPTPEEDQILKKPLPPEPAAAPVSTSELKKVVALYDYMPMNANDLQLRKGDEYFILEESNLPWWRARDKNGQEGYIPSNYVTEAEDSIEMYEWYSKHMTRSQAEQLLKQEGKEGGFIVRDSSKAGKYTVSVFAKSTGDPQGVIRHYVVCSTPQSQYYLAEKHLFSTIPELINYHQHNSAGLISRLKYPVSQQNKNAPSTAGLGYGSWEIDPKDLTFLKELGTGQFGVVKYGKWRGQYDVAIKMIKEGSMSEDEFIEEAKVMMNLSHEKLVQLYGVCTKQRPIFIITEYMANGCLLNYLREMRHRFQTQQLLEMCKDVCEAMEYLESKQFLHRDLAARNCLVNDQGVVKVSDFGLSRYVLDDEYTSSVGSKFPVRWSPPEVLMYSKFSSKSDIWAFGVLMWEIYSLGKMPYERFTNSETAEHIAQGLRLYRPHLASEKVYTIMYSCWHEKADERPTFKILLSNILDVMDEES

CYP2D6 = target: T2, CYP2D6 (Homo sapiens, UniProt P10635); test: CYP inhibition (fluorescent substrate), CYP2D6; format: in vitro ADME; conditions: substrate AMMC; read-out: Cyp IC50 (μM) 2D6
T2 construct: purchased BD Biosciences
T2 sequence (P10635 whole entry): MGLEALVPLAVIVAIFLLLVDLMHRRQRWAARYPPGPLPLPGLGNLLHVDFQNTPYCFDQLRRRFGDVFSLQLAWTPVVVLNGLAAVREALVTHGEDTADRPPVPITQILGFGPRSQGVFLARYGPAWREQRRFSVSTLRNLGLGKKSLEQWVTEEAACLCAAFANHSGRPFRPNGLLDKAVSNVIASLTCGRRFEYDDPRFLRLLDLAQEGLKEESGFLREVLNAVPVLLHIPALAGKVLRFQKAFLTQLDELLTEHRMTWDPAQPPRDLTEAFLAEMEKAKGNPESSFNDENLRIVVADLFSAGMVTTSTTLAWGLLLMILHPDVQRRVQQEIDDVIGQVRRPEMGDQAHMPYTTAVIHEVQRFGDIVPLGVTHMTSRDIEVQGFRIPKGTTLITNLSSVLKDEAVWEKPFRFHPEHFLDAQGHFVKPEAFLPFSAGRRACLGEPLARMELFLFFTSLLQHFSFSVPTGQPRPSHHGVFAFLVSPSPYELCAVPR
Method: as §3

Row | Compound | IC50 (A375 cells) [µM] | IC50 (CYP2C19) [µM] | IC50 (SK-MEL-2 cells) [µM] | IC50 (COLO205 cells) [µM] | % Tumor growth inhibition [1] [%] | Kinase having IC50 of >1 μM (Kit) | Kinase having IC50 of >1 μM (Btk) | IC50 (CYP2D6) [µM] | Kinase having IC50 of <1 μM (Kit; listing of the kinase means IC50 <1 μM)
1 | CCCS(=O)(=O)Nc1ccc(F)c(C(=O)c2c[nH]c3ncc(-c4cnc(OC)nc4)cc23)c1F [Compound P-0001, propane-1-sulfonic acid {2,4-difluoro-3-[5-(2-methoxy-pyrimidin-5-yl)-1H-pyrrolo[2,3-b]pyridine-3-carbonyl]-phenyl}-amide] | < 1 | > 10 | > 5 | < 1 | 43 | Kit | Btk | > 10 | 
2 | CCCS(=O)(=O)Nc1ccc(F)c(C(=O)c2c[nH]c3ncc(C#N)cc23)c1F [Compound P-0002, propane-1-sulfonic acid [3-(5-cyano-1H-pyrrolo[2,3-b]pyridine-3-carbonyl)-2,4-difluoro-phenyl]-amide] | < 1 | 5 to 10 | > 20 | < 1 | 80 | Kit | Btk | > 10 | 
3 | CCCS(=O)(=O)Nc1cccc(C(=O)c2c[nH]c3ncc(C#N)cc23)c1F [Compound P-0003, propane-1-sulfonic acid [3-(5-cyano-1H-pyrrolo[2,3-b]pyridine-3-carbonyl)-2-fluoro-phenyl]-amide] | < 2 | > 10 | > 20 | < 2 | 91 | Kit | Btk | > 10 | 
4 | N#Cc1cnc2[nH]cc(C(=O)c3c(F)ccc(NS(=O)(=O)c4cc(F)ccc4F)c3F)c2c1 [Compound P-0004, N-[3-(5-cyano-1H-pyrrolo[2,3-b]pyridine-3-carbonyl)-2,4-difluoro-phenyl]-2,5-difluoro-benzenesulfonamide] | < 1 | > 10 | > 20 | < 1 | 103 |  | Btk | > 10 | Kit
5 | N#Cc1cnc2[nH]cc(C(=O)c3c(F)ccc(NS(=O)(=O)c4cccc(F)c4)c3F)c2c1 [Compound P-0005, N-[3-(5-cyano-1H-pyrrolo[2,3-b]pyridine-3-carbonyl)-2,4-difluoro-phenyl]-3-fluoro-benzenesulfonamide] | < 1 | > 10 | > 20 | < 1 | 88 | Kit | Btk | > 10 | 
6 | N#Cc1cnc2[nH]cc(C(=O)c3c(F)ccc(NS(=O)(=O)N4CCCC4)c3F)c2c1 [Compound P-0006, pyrrolidine-1-sulfonic acid [3-(5-cyano-1H-pyrrolo[2,3-b]pyridine-3-carbonyl)-2,4-difluoro-phenyl]-amide] | < 1 | > 10 |  | < 1 | 82 | Kit | Btk | > 10 | 
7 | CN(C)S(=O)(=O)Nc1ccc(F)c(C(=O)c2c[nH]c3ncc(C#N)cc23)c1F [Compound P-0007, N,N-dimethylamino-sulfonic acid [3-(5-cyano-1H-pyrrolo[2,3-b]pyridine-3-carbonyl)-2,4-difluoro-phenyl]-amide] | < 2 | > 10 | > 20 | < 3 | 86 | Kit | Btk | > 10 | 
